Measurements: ChEMBL document CHEMBL5223103, “FLT3 inhibitors for acute myeloid leukemia: successes, defeats, and emerging paradigms” (RSC Med Chem, 2022)
One block for each compound: values may come before it.

Assays:
[1] = Growth inhibition of mouse 32D cells harboring FLT3-ITD-Y842H mutant assessed as growth inhibition WST assay; assay type: functional
[2] = Growth inhibition of mouse 32D cells harboring FLT3-ITD-Y842C mutant assessed as growth inhibition WST assay; assay type: functional
[3] = Growth inhibition of mouse 32D cells harboring FLT3-D835Y mutant assessed as growth inhibition WST assay; assay type: functional
[4] = tested on: MOLM-13; experiment: Growth inhibition of human MOLM-13 cells assessed as reduction in cell growth by cell viability assay; assay type: functional
[5] = tested on: THP-1; experiment: Growth inhibition of human THP-1 cells assessed as reduction in cell growth by cell viability assay; assay type: functional
[6] = tested on: EOL1; experiment: Growth inhibition of human EOL1 cells assessed as reduction in cell growth by cell viability assay; assay type: functional
[7] = tested on: Kasumi 1; experiment: Growth inhibition of human Kasumi 1 cells assessed as reduction in cell growth by cell viability assay; assay type: functional
[8] = Growth inhibition of mouse 32D cells harboring FLT3-ITD-D835Y mutant assessed as growth inhibition WST assay; assay type: functional
[9] = tested on: MV4-11; experiment: Growth inhibition of human MV4-11 cells assessed as reduction in cell growth by cell viability assay; assay type: functional
[10] = Growth inhibition of mouse 32D cells harboring FLT3-ITD-F691L mutant assessed as growth inhibition WST assay; assay type: functional
[11] = tested on: MOLM-14; experiment: Growth inhibition of human MOLM-14 cells assessed as reduction in cell growth by cell viability assay; assay type: functional
[12] = tested on: K562; experiment: Growth inhibition of human K562 cells assessed as reduction in cell growth by cell viability assay; assay type: functional
[13] = Growth inhibition of mouse 32D cells harboring FLT3-ITD mutant assessed as growth inhibition by WST assay; assay type: functional
[14] = tested on: BaF3; experiment: Growth inhibition of mouse BaF3 cells transfected with FLT3-ITD assessed as inhibition of cell growth measured after 48 hrs by MTT assay; assay type: functional
[15] = tested on: BaF3; experiment: Growth inhibition of mouse BaF3 cells transfected with FLT3-D835Y assessed as inhibition of cell growth measured after 48 hrs by MTT assay; assay type: functional
[16] = tested on: BaF3; experiment: Growth inhibition of mouse BAF3 cells harboring FLT3 ITD mutant assessed as reduction in cell inhibition measured after 72 hrs by MTT assay; assay type: functional
[17] = tested on: MOLM-13; experiment: Growth inhibition of human MOLM-13 cells harboring FLT3 resistant inhibitor assessed as growth inhibition; assay type: functional
[18] = tested on: MOLM-13; experiment: Growth inhibition of human MOLM-13 cells by WST-8 assay; assay type: functional
[19] = tested on: MV4-11; experiment: Growth inhibition of human MV4-11 cells by WST-8 assay; assay type: functional
[20] = biological target: Interleukin-1 receptor-associated kinase 1 (Homo sapiens, UniProt P51617); experiment: Inhibition of IRAK-1 (unknown origin)
[21] = biological target: Macrophage colony-stimulating factor 1 receptor (Homo sapiens, UniProt P07333); experiment: Inhibition of FMS (unknown origin)
[22] = tested on: BaF3; experiment: Growth inhibition of mouse BaF3 cells transfected in FLT3-ITD mutant measured after 72 hrs by CCK8 assay; assay type: functional
[23] = tested on: BaF3; experiment: Growth inhibition of mouse BaF3 cells transfected in FLT3-TDK mutant measured after 72 hrs by CCK8 assay; assay type: functional

Interleukin-1 receptor-associated kinase 1, sequence (P51617 whole entry): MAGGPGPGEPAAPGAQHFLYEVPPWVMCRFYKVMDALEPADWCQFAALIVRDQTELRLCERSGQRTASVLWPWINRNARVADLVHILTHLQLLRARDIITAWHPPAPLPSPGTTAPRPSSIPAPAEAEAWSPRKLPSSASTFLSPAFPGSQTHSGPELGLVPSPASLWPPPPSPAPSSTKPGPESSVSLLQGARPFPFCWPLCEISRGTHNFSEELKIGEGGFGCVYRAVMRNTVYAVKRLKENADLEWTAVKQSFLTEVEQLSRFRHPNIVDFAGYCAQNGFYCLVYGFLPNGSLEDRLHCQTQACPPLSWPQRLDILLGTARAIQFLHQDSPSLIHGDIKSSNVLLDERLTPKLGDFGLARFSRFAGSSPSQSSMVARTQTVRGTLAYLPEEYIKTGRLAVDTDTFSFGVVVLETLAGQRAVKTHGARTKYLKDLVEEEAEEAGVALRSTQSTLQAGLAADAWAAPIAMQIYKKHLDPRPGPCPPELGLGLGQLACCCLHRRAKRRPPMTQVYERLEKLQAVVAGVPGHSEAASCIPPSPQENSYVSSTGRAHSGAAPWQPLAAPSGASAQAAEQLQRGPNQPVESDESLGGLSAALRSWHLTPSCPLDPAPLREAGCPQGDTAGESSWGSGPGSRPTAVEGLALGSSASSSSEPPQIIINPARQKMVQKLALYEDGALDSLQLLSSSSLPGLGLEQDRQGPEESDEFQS
Macrophage colony-stimulating factor 1 receptor, sequence (P07333 whole entry): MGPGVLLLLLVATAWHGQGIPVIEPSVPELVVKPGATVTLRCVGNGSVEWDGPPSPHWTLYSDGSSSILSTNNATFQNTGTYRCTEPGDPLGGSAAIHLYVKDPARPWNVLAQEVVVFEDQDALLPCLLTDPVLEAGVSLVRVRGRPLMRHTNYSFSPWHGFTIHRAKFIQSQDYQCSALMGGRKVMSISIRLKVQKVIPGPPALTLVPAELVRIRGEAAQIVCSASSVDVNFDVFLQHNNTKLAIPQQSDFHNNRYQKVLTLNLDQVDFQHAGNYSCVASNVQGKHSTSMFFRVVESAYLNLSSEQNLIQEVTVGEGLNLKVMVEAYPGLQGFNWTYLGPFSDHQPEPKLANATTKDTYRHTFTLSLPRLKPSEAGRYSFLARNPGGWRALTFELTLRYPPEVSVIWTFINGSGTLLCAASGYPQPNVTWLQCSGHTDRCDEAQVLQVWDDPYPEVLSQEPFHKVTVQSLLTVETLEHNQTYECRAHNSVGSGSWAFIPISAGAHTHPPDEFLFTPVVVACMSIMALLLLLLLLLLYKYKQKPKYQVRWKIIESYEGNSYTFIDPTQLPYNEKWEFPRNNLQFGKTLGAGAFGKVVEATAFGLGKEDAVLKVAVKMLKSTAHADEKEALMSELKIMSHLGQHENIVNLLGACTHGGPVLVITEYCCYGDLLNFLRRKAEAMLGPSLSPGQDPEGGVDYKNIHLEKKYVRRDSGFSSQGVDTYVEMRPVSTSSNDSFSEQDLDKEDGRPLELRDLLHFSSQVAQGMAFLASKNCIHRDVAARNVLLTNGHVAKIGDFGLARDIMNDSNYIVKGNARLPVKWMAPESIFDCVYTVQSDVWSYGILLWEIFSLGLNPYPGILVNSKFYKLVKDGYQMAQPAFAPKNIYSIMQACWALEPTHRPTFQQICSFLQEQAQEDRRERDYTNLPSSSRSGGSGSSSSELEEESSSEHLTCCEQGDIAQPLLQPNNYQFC

- GI50 [4]: 1.1 nM
- GI50 [5]: > 1000 nM
- GI50 [9]: 0.83 nM
- GI50 [11]: 1.5 nM
- GI50 [12]: > 1000 nM
Structure (SMILES): CCCNc1nc(Nc2ccc(C#N)cc2)ncc1C#CCCCNC(=O)[C@H](C)N(C)C(=O)/C=C/CN(C)C [FF-10101]
- GI50 [1]: 5.3 nM
- GI50 [2]: 3.5 nM
- GI50 [3]: 1.1 nM
- GI50 [6]: 72 nM
- GI50 [7]: 26 nM
- GI50 [8]: 0.81 nM
- GI50 [10]: 10 nM
- GI50 [13]: 1.9 nM

- GI50 [14]: 1.8 nM
- GI50 [15]: 1.6 nM
Structure (SMILES): CCc1nc(C(N)=O)c(Nc2ccc(N3CCC(N4CCN(C)CC4)CC3)c(OC)c2)nc1NC1CCOCC1 [GILTERITINIB]

- GI50 [16]: 5 nM
Structure (SMILES): C[C@]12O[C@H](C[C@]1(O)CO)n1c3ccccc3c3c4c(c5c6ccccc6n2c5c31)CNC4=O [LESTAURTINIB]

- GI50 [17]: 173 nM
- GI50 [18]: 73 nM
- GI50 [19]: 33 nM
- IC50 [20]: 13.6 nM
- IC50 [21]: 39.5 nM
- GI50 [22]: 133 nM
- GI50 [23]: < 434 nM
Structure (SMILES): C1=N/C2=N/c3ccc(OCCN4CCCC4)c(c3)COC/C=C/COCc3cccc(c3)C(=C1)N2 [PACRITINIB]
